Measurements: patent US7060872B1, “Method for producing plants having modified canopy size or seedless fruit” (The State of Israel-Ministry of Agriculture & Rural …, priority 1998, dated 2006)
Entries after “also recorded” stand apart in the source; their conditions may differ.

Tested on: transgenic tomato plants expressing the sps streptavidin construct
Test: External biotin application to sps transgenic tomato plants (reversal of degeneration)
Format: in vivo
Description: The morphology and development of leaves of 6 weeks old plants obtained from non transgenic plant and transgenic tomato plants expressing the sps streptavidin construct and treated daily with biotin were also examined. FIG. 7 depicts the results of this study. […] This degeneration was to a lesser degree in the treated plants. Non transgenic plants both biotin treated and untreated appeared normal.
All of the plants treated with biotin remained green and vital throughout their development.

## O=C(O)CCCC[C@@H]1SC[C@@H]2NC(=O)N[C@@H]21 [biotin]
2 μM biotin, daily spray
  effect of daily biotin spraying after the initial chlorotic symptoms, on leaves: development of normal leaves
  effect of daily biotin spraying after the initial necrotic lesion: stopped or prevented further development of degenerative symptoms
2 μM biotin, daily spray, plants with seedless fruit
  effect of daily biotin spraying after the initial flower buds, on fruit and seed: development of normal fruit and the restoration of normal seed development
6 mg/liter biotin
  effect of spraying biotin on the affected area: stopped the degeneration process and plants' growth was restored
Seeds otherwise non-germinating (FIG. 6)
  effect of biotin application to T0 plants on germination of their seeds: restored the germination; also recorded: normal germination
Seen 10 or 20 days after application (FIG. 5)
  effect of biotin solution on leaf development of a degenerated T0 plant: restored normal leaf development
Treated once after 3 weeks, 6 weeks old plants, versus untreated transgenic plants (FIG. 7)
  tissue degeneration after a single biotin treatment: lesser degree
